Read-outs that look alike come from different tables or passages of the source.
Legend:
[1] = system: Jurkat/NFATLuc.3C7 cells + Raji cells; experiment: Jurkat/NFATLuc reporter bioassay with Raji cells; format: cell-based; conditions: highest RLU / lowest RLU
Experimental: Activity of the anti-BCMA×anti-CD3 bispecific antibodies were assessed in a Jurkat/NFATLuc reporter bioassay utilizing several cell lines with varying levels of BCMA surface expression. The Jurkat cells were engineered to express an NFAT-luciferase reporter (Jurkat/NFATLuc.3C7), and 50,000 Jurkat reporter cells were combined with 50,000 BCMA positive (Daudi, MM1-S, NCI-H929, OPM-2, RPMI-8226, MOLP-8, or Raji) or BCMA negative (HEK293) cells in Thermo Nunclon delta 96 well white microwell plates (Thermo Scientific, Cat #136102) in 50 ul of assay media (RPMI media with 10% FBS and 1% P/S/G). Three-fold serial dilutions of the BCMA×CD3 bispecific antibodies (mAb25441 D or mAb25442D), or a bivalent anti-BCMA antibody (mAb21581) were immediately added in 50 μL of assay buffer. The plates were gently agitated and incubated in a 37° C., 5% CO2 incubator for 4-6 hours. NFAT-Luciferase activity was determined using Promega One-Glo (Cat #E6130) and a Perkin Elmer Envision plate reader. RLU were plotted in GraphPad Prism using a four-parameter logistic equation over a 12-point response curve to calculate EC50 values. […] The signal to noise (S:N) is determined by taking the ratio of the highest RLU on the curve to the lowest.

[2] = system: primary multiple myeloma blast cells; experiment: FACS cytotoxicity assay, autologous T cell-mediated killing of primary multiple myeloma blast cells; format: cell-based, human; conditions: for EC50: read-out: MM Lysis EC50
Experimental: In order to monitor the specific killing of multiple myeloma cells by flow cytometry, bone marrow mononuclear cells (BMMC) from multiple myeloma patients were plated on human stromal cells (HS5) and rested overnight at 37 C. Separately, matching patient peripheral blood mononuclear cells (PBMC) were thawed and cultured in supplemented RPMI media at 1×10^6 cells/mL overnight at 37° C. in order to enrich for lymphocytes by depleting adherent cells. The next day, BMMC were co-incubated with adherent cell-depleted naïve PBMC on stromal cells (HS5) and a serial […] dilution of BCMA×CD3 bispecific or 1-arm CD3 isotype control (starting concentration 66.7 nM) at 37° C. Cells were removed from cell culture plates at day 3, 4 or 7 and analyzed by FACS. For the assessment of specificity of killing, multiple myeloma cells were gated as single, live, CD90 negative (to exclude stromal cells), CD2 negative, CD56 positive. CD45 was low on multiple myeloma cells in most samples except MM455. Percent of live target cells was reported for the calculation of adjusted survival as follows: Adjusted survival=(R1/R2)*100, where R1=% live target cells in the presence of antibody, and R2=% live target cells in the absence of test antibody.
T cells were gated as CD2 positive, CD56 negative and either CD4 or CD8 positive. T cell activation was reported as the percent of CD25+CD4 or CD8 T cells out of total CD4 or CD8 T cells.

[3] = system: BCMA-expressing MOLP-8 tumors; experiment: MOLP-8 + PBMC subcutaneous xenogenic tumor model, dose response (Example 13); format: in vivo, mouse
Experimental: To determine the in vivo efficacy of anti-BCMA×anti-CD3 bispecific antibodies (Abs), a xenogenic tumor study was performed. Immunodeficient NOD.Cg-Prkdc^scidIl2rg^tm1Wji/SzJ (NSG) mice were subcutaneously implanted with a mixture of 5×10^6 BCMA-expressing MOLP-8 human multiple myeloma tumor cells and 1×10^6 human peripheral blood mononuclear cells (PBMC) isolated from a normal, healthy donor. […] The mice were administered these Abs twice per week for a total of seven doses, and tumor growth was assessed over 56 days. While the BCMA^+ MOLP-8 tumors grew similarly in the vehicle- and CD3-binding control-treated mice, both BCMA×CD3 Abs that were tested prevented the growth of tumors in a dose-dependent manner in vivo.
Implantation and measurement of xenogenic tumors: NSG mice were subcutaneously implanted with a mixture of 5×10^6 BCMA-expressing MOLP-8 multiple myeloma cells and 1×10^6 PBMC derived from a normal, healthy donor. […] The mice were administered Abs twice per week for a total of seven doses. Tumor growth was measured by caliper twice per week for the duration of the experiment.
Calculation of xenogenic tumor growth and inhibition: In order to determine tumor volume by external caliper, the greatest longitudinal diameter (length in mm) and the greatest transverse diameter (width in mm) were determined. Tumor volumes based on caliper measurements were calculated by the formula: Volume (mm^3)=(length×width^2)/2.

[4] = sample MM2, newly diagnosed, E:T 1.4, 7 days
[5] = sample MM369, newly diagnosed, E:T 0.3, 3 days
[6] = sample MM453, newly diagnosed, E:T 2.4, 3 days
[7] = sample MM455, progression, treated, E:T 0.4, 3 days

Question: What does the source list for “REGN5458: anti-BCMA×anti-CD3 bispecific antibody: BCMA HCVR of mAb21581 (SEQ 66), CD3 HCVR of mAb7221G (SEQ 90), common LCVR SEQ 82”?
Answer: S:N [1]: 123; EC50 ([2]; sample MM2, E:T 1.4, 7 days): 0.747 nM; % MM lysis at 66 nM [2, 4]: 88%; % MM lysis at 66 nM [2, 5]: 96%; EC50 ([2]; sample MM453, E:T 2.4, 3 days): 0.0989 nM; % MM lysis at 66 nM [2, 6]: 82%; EC50 ([2]; sample MM455, E:T 0.4, 3 days): 3.67 nM; % MM lysis at 66 nM [2, 7]: 63%; Average Tumor Size (mm3) ± SEM on Day 3 ([3]; 0.04 mg/kg): 9.3 ± 2.4 mm3; Average Tumor Size (mm3) ± SEM on Day 7 ([3]; 0.04 mg/kg): 18.3 ± 5.0 mm3; Average Tumor Size (mm3) ± SEM on Day 10 ([3]; 0.04 mg/kg): 73.9 ± 25.7 mm3; Average Tumor Size (mm3) ± SEM on Day 14 ([3]; 0.04 mg/kg): 255.4 ± 79.7 mm3; Average Tumor Size (mm3) ± SEM on Day 17 ([3]; 0.04 mg/kg): 494.3 ± 144.3 mm3; Average Tumor Size (mm3) ± SEM on Day 21 ([3]; 0.04 mg/kg): 1373.0 ± 366.6 mm3; Average Tumor Size (mm3) ± SEM on Day 23 ([3]; 0.04 mg/kg): 1882.3 ± 551.5 mm3; Average Tumor Size (mm3) ± SEM on Day 28 ([3]; 0.04 mg/kg): 2542.5 ± 613.3 mm3; Average Tumor Size (mm3) ± SEM on Day 31 ([3]; 0.04 mg/kg): 2906.1 ± 532.6 mm3; Average Tumor Size (mm3) ± SEM on Day 35 ([3]; 0.04 mg/kg): 3538.0 ± 0.0 mm3; Average Tumor Size (mm3) ± SEM on Day 3 ([3]; 0.4 mg/kg): 13.5 ± 1.5 mm3; Average Tumor Size (mm3) ± SEM on Day 10 ([3]; 0.4 mg/kg): 0 ± 0 mm3; Average Tumor Size (mm3) ± SEM on Day 14 ([3]; 0.4 mg/kg): 0 ± 0 mm3; Average Tumor Size (mm3) ± SEM on Day 17 ([3]; 0.4 mg/kg): 1.7 ± 1.7 mm3; Average Tumor Size (mm3) ± SEM on Day 21 ([3]; 0.4 mg/kg): 5.3 ± 5.3 mm3; Average Tumor Size (mm3) ± SEM on Day 23 ([3]; 0.4 mg/kg): 9.7 ± 9.7 mm3; Average Tumor Size (mm3) ± SEM on Day 28 ([3]; 0.4 mg/kg): 47.4 ± 47.4 mm3; Average Tumor Size (mm3) ± SEM on Day 31 ([3]; 0.4 mg/kg): 104.7 ± 92.6 mm3; Average Tumor Size (mm3) ± SEM on Day 35 ([3]; 0.4 mg/kg): 375.1 ± 307.5 mm3; Average Tumor Size (mm3) ± SEM on Day 42 ([3]; 0.4 mg/kg): 968.8 ± 689.2 mm3; Average Tumor Size (mm3) ± SEM on Day 56 ([3]; 0.4 mg/kg): 1742.4 ± 635.2 mm3; Average Tumor Size (mm3) ± SEM on Day 3 ([3]; 4 mg/kg): 12.5 ± 1.3 mm3; Average Tumor Size (mm3) ± SEM on Day 7 ([3]; 4 mg/kg): 0 ± 0 mm3; Average Tumor Size (mm3) ± SEM on Day 10 ([3]; 4 mg/kg): 0 ± 0 mm3; Average Tumor Size (mm3) ± SEM on Day 14 ([3]; 4 mg/kg): 0 ± 0 mm3; Average Tumor Size (mm3) ± SEM on Day 17 ([3]; 4 mg/kg): 14.5 ± 7.3 mm3; Average Tumor Size (mm3) ± SEM on Day 21 ([3]; 4 mg/kg): 102.7 ± 66.2 mm3; Average Tumor Size (mm3) ± SEM on Day 23 ([3]; 4 mg/kg): 193.3 ± 117.7 mm3; Average Tumor Size (mm3) ± SEM on Day 28 ([3]; 4 mg/kg): 627.4 ± 318.1 mm3; Average Tumor Size (mm3) ± SEM on Day 31 ([3]; 4 mg/kg): 1018.5 ± 498.3 mm3; Average Tumor Size (mm3) ± SEM on Day 35 ([3]; 4 mg/kg): 1342.9 ± 629.6 mm3; Average Tumor Size (mm3) ± SEM on Day 42 ([3]; 4 mg/kg): 2363.0 ± 890.2 mm3; Average Tumor Size (mm3) ± SEM on Day 49 ([3]; 4 mg/kg, Day 49): 1683.5 ± 1683.5 mm3; Average Tumor Size (mm3) ± SEM on Day 56 ([3]; 4 mg/kg): 3108.1 ± 3108.1 mm3

Question: Which results are given for “REGN5459: anti-BCMA×anti-CD3 bispecific antibody: BCMA HCVR of mAb21581 (SEQ 66), CD3 HCVR of mAb7221G20 (SEQ 98), common LCVR SEQ 82”?
Answer: S:N [1]: 78; EC50 ([2]; sample MM2, E:T 1.4, 7 days): 7.24 nM; % MM lysis at 66 nM [2, 4]: 85%; EC50 ([2]; sample MM369, E:T 0.3, 3 days): 0.496 nM; % MM lysis at 66 nM [2, 5]: 94%; EC50 ([2]; sample MM453, E:T 2.4, 3 days): 1.19 nM; % MM lysis at 66 nM [2, 6]: 80%; EC50 ([2]; sample MM455, E:T 0.4, 3 days): 79.4 nM; % MM lysis at 66 nM [2, 7]: 52%; Average Tumor Size (mm3) ± SEM on Day 3 ([3]; 0.04 mg/kg): 11.7 ± 2.1 mm3; Average Tumor Size (mm3) ± SEM on Day 7 ([3]; 0.04 mg/kg): 37.0 ± 5.7 mm3; Average Tumor Size (mm3) ± SEM on Day 10 ([3]; 0.04 mg/kg): 104 ± 23.0 mm3; Average Tumor Size (mm3) ± SEM on Day 14 ([3]; 0.04 mg/kg): 356.7 ± 84.6 mm3; Average Tumor Size (mm3) ± SEM on Day 17 ([3]; 0.04 mg/kg): 645.6 ± 140.9 mm3; Average Tumor Size (mm3) ± SEM on Day 21 ([3]; 0.04 mg/kg): 1442.4 ± 310.7 mm3; Average Tumor Size (mm3) ± SEM on Day 23 ([3]; 0.04 mg/kg): 2124.4 ± 444.1 mm3; Average Tumor Size (mm3) ± SEM on Day 28 ([3]; 0.04 mg/kg): 1939.3 ± 840.6 mm3; Average Tumor Size (mm3) ± SEM on Day 31 ([3]; 0.04 mg/kg): 2688.7 ± 1176.6 mm3; Average Tumor Size (mm3) ± SEM on Day 35 ([3]; 0.04 mg/kg): 612.1 ± 0 mm3; Average Tumor Size (mm3) ± SEM on Day 3 ([3]; 0.4 mg/kg): 14.0 ± 1.6 mm3; Average Tumor Size (mm3) ± SEM on Day 7 ([3]; 0.4 mg/kg): 0 ± 0 mm3; Average Tumor Size (mm3) ± SEM on Day 10 ([3]; 0.4 mg/kg): 0 ± 0 mm3; Average Tumor Size (mm3) ± SEM on Day 14 ([3]; 0.4 mg/kg): 0 ± 0 mm3; Average Tumor Size (mm3) ± SEM on Day 17 ([3]; 0.4 mg/kg): 0 ± 0 mm3; Average Tumor Size (mm3) ± SEM on Day 21 ([3]; 0.4 mg/kg): 0 ± 0 mm3; Average Tumor Size (mm3) ± SEM on Day 23 ([3]; 0.4 mg/kg): 0 ± 0 mm3; Average Tumor Size (mm3) ± SEM on Day 28 ([3]; 0.4 mg/kg): 0 ± 0 mm3; Average Tumor Size (mm3) ± SEM on Day 31 ([3]; 0.4 mg/kg): 0 ± 0 mm3; Average Tumor Size (mm3) ± SEM on Day 35 ([3]; 0.4 mg/kg): 0 ± 0 mm3; Average Tumor Size (mm3) ± SEM on Day 42 ([3]; 0.4 mg/kg): 0 ± 0 mm3; Average Tumor Size (mm3) ± SEM on Day 56 ([3]; 0.4 mg/kg): 0 ± 0 mm3; Average Tumor Size (mm3) ± SEM on Day 3 ([3]; 4 mg/kg): 12.9 ± 1.3 mm3; Average Tumor Size (mm3) ± SEM on Day 7 ([3]; 4 mg/kg): 0.6 ± 0.6 mm3; Average Tumor Size (mm3) ± SEM on Day 10 ([3]; 4 mg/kg): 0 ± 0 mm3; Average Tumor Size (mm3) ± SEM on Day 14 ([3]; 4 mg/kg): 0 ± 0 mm3; Average Tumor Size (mm3) ± SEM on Day 17 ([3]; 4 mg/kg): 0 ± 0 mm3; Average Tumor Size (mm3) ± SEM on Day 21 ([3]; 4 mg/kg): 0 ± 0 mm3; Average Tumor Size (mm3) ± SEM on Day 23 ([3]; 4 mg/kg): 0 ± 0 mm3; Average Tumor Size (mm3) ± SEM on Day 28 ([3]; 4 mg/kg): 1.9 ± 1.9 mm3; Average Tumor Size (mm3) ± SEM on Day 31 ([3]; 4 mg/kg): 3.8 ± 3.0 mm3; Average Tumor Size (mm3) ± SEM on Day 35 ([3]; 4 mg/kg): 9.3 ± 7.5 mm3; Average Tumor Size (mm3) ± SEM on Day 42 ([3]; 4 mg/kg): 12.8 ± 12.8 mm3; Average Tumor Size (mm3) ± SEM on Day 56 ([3]; 4 mg/kg): 17.2 ± 17.2 mm3
